A short description of series [1]: in situ perfusion method of the rectum (perfusate recirculated through the rat rectum; drug remaining in the perfusate).
Procedure: In this experiment, the amount of remaining theophylline, originally at a concentration of about 200 mg/ml, in aqueous solution and continually recirculated or perfused to the rectal compartment of the rat, at the end of one hour, is shown as the lower plot for studies carried out in the presence of 0.2% sodium salicylate, is shown as the upper plot.
A second cannula is inserted through the anus 1 cm inside the rectum and secured by ligation. Thus, about 2 cm of the rectum is exposed to the perfusate. The perfustate (6 ml) is circulated at a rate of 2 ml/min at 38°C. As perfustate, 1/15 M-phosphate buffer solutions are used and the ionic strength of the perfusate is adjusted to 0.75 with sodiumchloride as necessary. […] The amount of drug remaining in the perfusate is analyzed as a function of time by appropriate methods, e.g., by high-pressure liquid chromatography.
A second cannula is inserted through the anus 1 cm. inside the rectum and secured by ligation. Thus, about 2 cm of the rectum is exposed to the perfusate. The perfusate (6 ml) is circulated at a rate of 2 ml/min at 38°C. As perfusate, 1/15 M-phosphate buffer solutions are used and the ionic strength of the perfusate is adjusted to 0.75 with sodium chloride as necessary. […] The amount of drug remaining in the perfusate is analyzed as a function of time by appropriate methods, e.g. by high-pressure liquid chromatography.
The conditions of series [2]: dog, in vivo.
Procedure: Four male beagle dogs weighing 9.5-11 kg are used and are fasted for two days prior to experimentation. Witepsol H-15 is used as an excipient to prepare the suppository formulation of cefmetazole. Microenema formulations are prepared with aqueous 0.02M phosphate buffer with a final pH of 7.4. Either a 1 g suppository or a 1 ml microenema is given to each dog. The formulations may contain varying amounts of adjuvant. Blood samples are taken from the foreleg vein at predetermined sampling times after dosing. Blood samples are heparinized and centrifuged at 3,000 rpm for 10 minutes. The concentration of cefmetazole in the plasma of the dogs is analyzed as a function of time using plasma aliquots for the assay of cefmetazole.

As to `Cn1c(=O)c2[nH]cnc2n(C)c1=O` [theophylline, 3,7-Dihydro-1,3-dimethyl-1H-purine-2,6-dione], in series [1] (Figure 1, theophylline about 200 mg/ml aqueous solution, amount remaining at end of one hour, 0.2% sodium salicylate, effect greatest below pH 5.5 and above pH 7.5), the “effect of the salicylate on the rate of absorption of theophylline from the rectal compartment” value was “marked effect”.
`O=C(O)c1cc(O)ccc1O` [gentisic acid]: the “adjuvant effect on the rectal absorption” value in series [1] (Figure 4 (theophylline)) was “evident”.
As to `CO[C@@]1(NC(=O)CSCC#N)C(=O)N2C(C(=O)O)=C(CSc3nnnn3C)CS[C@@H]21` [cefmetazole, Cefmetazole], in series [2], the “bioavailability, suppository formulations versus microenema formulations” value is “greater bioavailability” and the “rectal absorption of cefmetazole” value was “significantly enhanced”.

Values taken from patent EP0031561B1, “A rectally administered suppository comprising a drug and an adjuvant” (Merck & Co., Inc., priority 1979, dated 1981).
